Experimental data taken from patent publication US20190282580A1, “PRO-INFLAMMATORY ROLE FOR ADENOSINE UPTAKE AND METABOLISM” (priority 2016, published 2019).
“Also recorded” adds a separate entry of the source.

Tests used:
[1] = test system: pro-inflammatory and anti-viral genes; test: Pro-inflammatory cytokine and innate immune gene expression in endothelial cells (qRT-PCR, RNAseq); format: cell-based, human; conditions: for pro-inflammatory cytokine production: after viral infection, extracellular supplementation; for expression of IL-6 and TNF cytokines: endothelial cells after supplementation
Experimental: (§1) Real-time PCR: Total RNA was extracted using the Quick-RNA MiniPrep Plus kit (Zymo Research). Total RNA (200-1000 ng) was used to synthesize complementary DNA using the qScript cDNA synthesis kit (Quanta). Samples were diluted 10-fold and gene expression was analyzed by real-time quantitative PCR on a CFX96 Touch Detection System (Bio-Rad) using FastStart SYBR Green Master Mix (Roche) or TaqMan Universal PCR Master Mix (ThermoFisher Scientific).
RNAseq: Total RNA was extracted from 10^7 cultured cells using the Quick-RNA MiniPrep Plus kit (Zymo Research). RNA quality was assessed using an Agilent Tapestation, such that all samples should produce RIN^e scores above 9.0. For each sample, 500-1000 ng of total RNA was then prepared into an mRNA library using the Truseq Stranded mRNA Library Prep Kit (Illumina). Resulting libraries were then pooled at equimolar concentrations using Quant-iT PicoGreen dsDNA Assay Kit (Life Technologies) and were deep sequenced on an Illumina 2500 in Rapid Run Mode, producing between 10M and 90M single-end reads with lengths of 50 nucleotides per sample.
The single-end reads that passed Illumina filters were filtered for reads aligning to tRNA, rRNA, adapter sequences, and spike-in controls. The reads were then aligned to UCSC hg19 reference genome using TopHat (v 1.4.1). DUST scores were calculated with PRINSEQ Lite (v 0.20.3) and low-complexity reads (DUST>4) were removed from the BAM files. The alignment results were parsed via the SAMtools to generate SAM files. Read counts to each genomic feature were obtained with the htseq-count program (v 0.6.0) using the “union” option. After removing absent features (zero counts in all samples), the raw counts were then imported to R/Bioconductor package DESeq2 [5] to identify differentially expressed genes among samples. DESeq2 normalizes counts by dividing each column of the count table (samples) by the size factor of this column. The size factor is calculated by dividing the samples by geometric means of the genes. This brings the count values to a common scale suitable for comparison. P-values for differential expression are calculated using binomial test for differences between the base means of two conditions. These p-values are then adjusted for multiple test correction using Benjamin Hochberg algorithm to control the false discovery rate. […] Cluster analyses including principal component analysis (PCA) and hierarchical clustering were performed using standard algorithms and metrics. Hierarchical clustering was performed using complete linkage with Euclidean metric.

IFNβ [2] = test: IFNβ induction (TaqMan qRT-PCR) in primary human endothelial cells after dsDNA or hCMV; format: cell-based; conditions: for hCMV induced IFNβ: pre-treatment, siControl and siADA2-treated endothelial cells (HUVEC, HBMVEC, HDMVEC)
IRF3 = IRF3 nuclear translocation (in situ immunofluorescence) in primary human endothelial cells after dsDNA or hCMV; format: cell-based; conditions: primary human endothelial cells (HUVEC) supplemented with the substance, then DNA treatment or hCMV infection
Text: (§2) Extracellular Ado supplementation enhances anti-viral innate responses: To date, all loss-of function mutations in ADA2 that cause PAN/DADA2 vasculitis either reduce protein levels of ADA2 or dramatically impair enzymatic activity of ADA2, such that loss of enzymatic activity in serum is the defining characteristic of the disease. Loss of ADA2 activity in serum alters catabolism of Ado/dAdo released into circulation from cells and tissues, or produced by dephosphorylation of extracellular ATP/dATP. Ado and dAdo are profoundly immuno-modulatory nucleosides, exerting many effects on cells. Vascular endothelial cells metabolize Ado/dAdo in blood, yet excessive or dysregulated Ado/dAdo signaling has not been examined in endothelium. To examine the effects of Ado on vascular endothelial cells, HUVEC were supplemented with extracellular Ado 24 h prior to treatment with DNA or infection with hCMV.
Cells: Primary human cells were obtained from Lonza as single donor aliquots. Wherever possible, both male and female donors were analyzed. Human umbilical vascular endothelial cells (HUVEC) and Human aortic endothelial cells (HAEC) were maintained in EGM-2 Bulletkit growth media (Lonza) supplemented with 2% HI-FBS. […]
IRF3 immunostaining: Cells were fixed with 4% PFA for 20 min, washed 3 times with 1×PBS, permeabilized with 0.2% Triton X-100 for 10 min, and blocked with 10% FBS for 30 min Cells were incubated with IRF-3 primary antibody (clone FL-425, Santa Cruz) at 1:200 dilution for 30 min and washed 3 times with 1×PBS. […] Images were acquired at 10× magnification on ImageXpress Micro (Molecular Devices), and images were analyzed using the enhanced translocation module of MetaXpress (Molecular Devices). Individual cells were scored as positive for nuclear translocation if >70% of IRF3 fluorescence was spatially correlated with DAPI fluorescence. […]

IFNβ [3] = test: IFNβ induction (TaqMan qRT-PCR) in primary human endothelial cells after dsDNA or hCMV; format: cell-based; conditions: for IFNβ induction: HUVEC supplemented with the substance, then DNA treatment or hCMV infection
Text: as §2
Cells: Primary human cells were obtained from Lonza as single donor aliquots. Wherever possible, both male and female donors were analyzed. Human umbilical vascular endothelial cells (HUVEC) and Human aortic endothelial cells (HAEC) were maintained in EGM-2 Bulletkit growth media (Lonza) supplemented with 2% HI-FBS. Human dermal microvascular endothelial cells (HDMVEC), human brain microvascular endothelial cells (HBMVEC), and human kidney microvascular endothelial cells (HKMVEC) were maintained in EBM-2MV Bulletkit growth media (Lonza) supplemented with 5% HI-FBS. Normal human bronchial […] cells (NHBE) were maintained in BEGM Bulletkit growth media (Lonza). U937 were maintained in RPMI supplemented with 5% HI-FBS. For activation of cell-intrinsic innate immune responses through the STING-IFN-I pathway, all cells were stimulated for 3 h with poly dA:dT or VACV70 dsDNA (200-1000 ng/mL) using LyoVec as a transfection reagent (Invivogen), or infected for 3 h with hCMV MOLD at MOI=1.
as §1, with “Scientific). […]” for “Scientific).”

vascular endothelium = conditions: references 22-24; cited from earlier work
STING = STING mRNA expression (TaqMan qRT-PCR) in HUVEC; format: cell-based, human; conditions: supplemented cells, resting and stimulated
Experimental: as §1

IFNβ [4] = test: IFNβ induction in monocytes; format: cell-based, human
Experimental: as §1
Lentivirus production for shRNA and CRISPR: For shRNA experiments, sequences were selected from the Sigma mission 2.0 library. For CRISPR experiments, sgRNA sequences selected using the CHOPCHOP algorithm and were cloned into the lentiCRISPrv2 vector […]. Plasmids were transformed and amplified in Dh5α competent E. Coli, and purified using the EndoFree Plasmid Maxi kit (QIAGEN). For lentivirus preparation, 293T cells seeded in 6-well plates and transfected with pLKO.1 or lentiCRIPRv2 plasmids and MISSION Lentiviral Packaging Mix (Sigma), using JetPrime transfection reagent (Polyplus). After 24 h, media was changed to full growth media supplemented with 30% FBS. After 48 h, lentiviral supernatants were collected and HUVEC or U937 cells were spin-infected by centrifugation for 1 h at 37 C at 2000 rpm. Cells were selected in 3 ug/mL puromycin media for 2 weeks.

Row | Compound | IRF3 activation / nuclear translocation (IRF3) | IFNβ induction (IFNβ [3]) | pro-inflammatory cytokine production [1] | uptake of circulating nucleoside by the vascular endothelium (vascular endothelium) | STING mRNA levels / expression (STING) | also measured
1 | OCCN(CCO)c1nc(N2CCCCC2)c2nc(N(CCO)CCO)nc(N3CCCCC3)c2n1 [dipyridamole] |  |  |  |  |  | expression of pro-inflammatory and anti-viral genes ([1]; ADA2-depleted and dAdo-supplemented cells, whole-transcriptome RNAseq): broadly inhibited; cytokine production ([1]; ADA2/CECR1-depleted cells): reduces; IFNβ levels (IFNβ [2]; TREX1-depleted cells): dampened; dIno-augmented IFNβ (IFNβ [2]; cells supplemented with dIno, sensitivity to DPM): sensitive; hCMV induced IFNβ (IFNβ [2]): significantly reduced; also recorded: dose-dependent decrease; hCMV induced IFNβ (IFNβ [2]; listed as Dipyridamole): reduced
2 | CCNC(=O)[C@H]1O[C@@H](n2cnc3c(N)ncnc32)[C@H](O)[C@@H]1O [NECA, 5′-N-ethylcarboxamidoadenosine] | did not enhance; also recorded: no effect; also recorded: does not significantly affect | did not enhance; also recorded: does not significantly affect |  |  |  | 
3 | OC[C@H]1O[C@@H](n2cnc3c2NC=NC[C@H]3O)C[C@@H]1O [pentostatin] |  |  |  |  |  | augmentation of IRF3 and IFNβ responses by extracellular Ado and dAdo (IFNβ [2]; in the presence of pentostatin to inhibit ADA2, endothelial cells): enhanced
4 | Nc1ncnc2c1ncn2[C@@H]1O[C@H](CO)[C@@H](O)[C@H]1O [Ado, adenosine] | significantly enhanced; also recorded: augmented; also recorded: enhances | significantly enhanced; also recorded: augmented; also recorded: enhances | enhances | within a few seconds |  | IFNβ induction (IFNβ [3]; listed as adenosine): enhances; expression of IL-6 and TNF cytokines [1]: enhanced expression; expression of IL-6 and TNF cytokines ([1]; listed as adenosine): enhances
5 | OC[C@H]1O[C@@H](n2cnc3c(O)ncnc32)C[C@@H]1O [dIno, deoxyinosine] |  |  |  |  | up-regulated | IFNβ mRNA induction (IFNβ [3]; prolonged supplementation of HUVEC, dsDNA treatment): specifically augmented
6 | Nc1ncnc2c1ncn2[C@H]1C[C@H](O)[C@@H](CO)O1 [dAdo, 2′-deoxyadenosine] | significantly enhances; also recorded: augmented | significantly enhances; also recorded: augmented | enhances | within a few seconds | up-regulated | IFNβ induction (IFNβ [4]): enhanced
